Test results taken from patent publication US20170217914A1, “Novel Triarylethylene Compounds and Methods Using Same” (The Penn State Research Foundation, priority 2014, published 2017).
Where two headings read alike, the source gives them in different places.

What was measured:
MDA-MB-231 cells [1] = assay: In vitro Matrigel invasion assay; type: cell-based, human; conditions: dose dependent
Experimental: Human breast cancer MDA-MB-231 cells were serum starved for 24 h in serum-free medium (DMEM without FBS). After starving 50,000 cells were transferred onto Matrigel pre-coated invasion inserts (upper chamber, BD Biocoat). Lower chambers of plate were filled with complete medium (DMEM and 10% FBS) and cells were allowed to migrate under chemotaxis. […] After incubation cells that had invaded to the opposite side of the Transwell membrane were washed with PBS and fixed in chilled 70% ethanol for 15 min and air dried. Cells were stained with 0.5% crystal violet for 10 min. Cells were washed, dried, and images were captured at 40× magnification.

c-Myc = assay: Western blot, c-Myc expression in breast cancer cells; type: cell-based, human; conditions: MDA-MB-231 and MCF-7 cells, 24 h
Experimental: (§1) To determine the effect of novel triarylethylene derivatives on proteins involved in metastasis, and adhesion, whole-cell extracts were prepared by subjecting cells to lysis in RIPA buffer supplemented with protease and phosphatase inhibitor cocktails using previously described methods (Pandey et al., 2014, Exp. Hematol. 42:883-896). Lysates were spun at 15,000 rpm for 10 minutes to remove insoluble material. Supernatant were collected and kept at −80° C. Lysates were resolved by SDS-PAGE. After electrophoresis, the proteins were electro-transferred to PVDF membranes, blotted with the relevant antibodies, and detected by enhanced chemo-luminescence reagent.

caveolin = assay: Western blot, caveolin expression in breast cancer cells; type: cell-based, human; conditions: MDA-MB-231 and MCF-7 cells, 24 h
Experimental: as §1

[2] = system: MDA-MB-231 (ER-negative) human breast cancer cell line; assay: MTT cell viability assay, MDA-MB-231 cells; conditions: for anticancer activity in initial screening: 0.5-25 μM, 48 h (FIG. 3); for times more cytotoxic than Tamoxifen / times more effective than Ospemifene: 96 h time point; for IC50: Homo sapiens, read-out: MDA-MB-231 (ER− negative) IC50
Experimental: (§3) An MTT solution was added to each well and incubated for 3 h at 37° C. After 3 h, DMSO was added and the optical density was measured at 570 nm using a 96-well multiscanner (Dynex Technologies, MRX Revelation; Chantilly, Va., USA). Backgrounds were subtracted at 630 nm. IC50 values were calculated by non-linear regression analysis using Prism software.
(§4) The effects of novel triarylethylene derivatives on the cell viability were determined by the MTT uptake method using previously described methods (Kaur et al., 2014, Eur. J. Med. Chem. 86:211-218). Briefly, 3000 cells were incubated with various concentrations of compounds in triplicate in a 96-well plate for 72 h at 37° C. An MTT solution was added to each well and incubated for 3 h at 37° C. After 3 h, DMSO was added and the optical density was measured at 570 nm using a 96-well multiscanner (Dynex Technologies, MRX Revelation; Chantilly, Va., USA). Backgrounds were subtracted at 630 nm. IC50 values were calculated by non-linear regression analysis using Prism software.

[3] = system: MCF-7 (ER-positive) human breast cancer cell line; assay: MTT cell viability assay, MCF-7 cells; conditions: for anticancer activity in initial screening: 0.5-25 μM, 48 h (FIG. 3); for times more cytotoxic than Tamoxifen / times more effective than Ospemifene: 96 h time point; for IC50: Homo sapiens, read-out: MCF-7 (ER positive) IC50
Experimental: as §3, §4

MMP-9 = assay: Western blot, MMP-9 expression in breast cancer cells; type: cell-based, human; conditions: MDA-MB-231 and MCF-7 cells, 24 h
Experimental: as §1

MCF-7 cells = assay: Live/Dead assay by flow cytometry, MCF-7 cells; type: cell-based, human; conditions: 24 h
From the text: (§2) To measure cell death, the Live/Dead assay (Life technologies, USA) was used, which determines intracellular esterase activity and plasma membrane integrity (Pandey et al., 2013, PloS One 8:e78570). Nonfluorescent polyanionic dye calcein AM is retained by live cells and by enzymatic conversion (esterase) it becomes fluorescent, produces intense green fluorescence in live cells. Ethidium homodimer enters cells with damaged membranes and binds to nucleic acids, thereby producing a bright red fluorescence in dead cells. […] Cells were stained with the Live and Dead reagent (5 μM ethidium homodimer and 5 μM calcein-AM) and analyzed by flow cytometry according to the manufacture's protocols.

[4] = system: normal mouse embryonic fibroblast (MEF) cells; assay: MTT cell viability assay, normal MEF cells; conditions: 48 h
Experimental: as §3

MDA-MB-231 cells [5] = assay: Live/Dead assay by flow cytometry, MDA-MB-231 cells; type: cell-based, human; conditions: 24 h, 10 μM
From the text: as §2

[6] = MTT, 72 h, versus Ospemifene and Tamoxifen

| Molecule | effect on invasion of ER-negative cells (MDA-MB-231 cells [1]) | expression of c-Myc (c-Myc) | expression of caveolin (caveolin) | cytotoxic activity [2, 6] | cytotoxic activity [3, 6] | expression of MMP-9 (MMP-9) | cells killed (MCF-7 cells; 10 μM) [%] | toxicity to normal MEF cells [4] | anticancer activity in initial screening [2] | times more cytotoxic than Tamoxifen [2] | times more effective than Ospemifene [2] | IC50 ([2]; MDA-MB-231, 48 h) [µM] | IC50 ([2]; MDA-MB-231, 96 h) [µM] | anticancer activity in initial screening [3] | times more cytotoxic than Tamoxifen [3] | times more effective than Ospemifene [3] | IC50 ([3]; MCF7, 48 h) [µM] | IC50 ([3]; MCF7, 96 h) [µM] | cells killed (MDA-MB-231 cells [5]) [%] | dead cells (MCF-7 cells; increasing amount of compound) |
| --- | --- | --- | --- | --- | --- | --- | --- | --- | --- | --- | --- | --- | --- | --- | --- | --- | --- | --- | --- | --- |
| (Z)-[4-azido-1-{4-(2-azidoethoxy) phenyl}but-1-ene-1,2-diyl]dibenzene [Compound 5] | suppressed the invasion | inhibited the expression | inhibited the expression | much more effective than the standards | much more effective than the standards | inhibited the expression | – | – | – | – | – | – | – | – | – | – | – | – | – | – |
| NCCOc1ccc(/C(=C(/CCN)c2ccccc2)c2ccccc2)cc1 [Compound 7, (Z)-4-{4-(2-aminoethoxy)phenyl}-3,4-diphenylbut-3-en-1-amine] | – | – | – | – | – | – | 70 | non-toxic | more potent than Ospemifene | at least five | eight | 17.1 | 13.4 | more potent than Ospemifene | at least five | about five | 23.6 | 11.2 | 70 | – |
| NCC/C(=C(\c1ccccc1)c1ccc(OCCO)cc1)c1ccccc1 [Compound 6, (Z)-2-{4-(4-amino-1,2-diphenylbut-1-enyl)phenoxy}ethanol] | – | – | – | – | – | – | – | non-toxic | more potent than Ospemifene | at least five | eight | 25 | 14.5 | more potent than Ospemifene | at least five | about five | 15.9 | 12.4 | – | 50-70% |
